This experiment has as its system Crimson seedless grapes. Kind of experiment: grape coloring field study, ABA with or without Latron B-1956. In kind it is in vivo. As to conditions: for Harvest yield (%): harvest at 64 days after treatment, yield percent with sufficient color. Here is the method: A grape coloring field study was conducted at Caruthers, Calif., ABA alone at 100 or 200 ppm or its combination with 0.05% Latron B-1956 was foliar applied to Crimson seedless grapes. Number of clusters, with color was counted on a weekly basis, beginning at 21 days after treatment. Percentage of clusters with color was calculated. Grape yield was harvested at 64 days after treatment.
All experiments were conducted using a randomized complete block experimental design. Data were analyzed by analysis of variance. Duncan's new multiple range tests at α-005 were used for mean separations.
The effect of 0.05% Latron B-1956 on ABA (100 or 200 ppm) performance in grape coloration was examined (Table 15). Addition of Latron B-1956 increased the percent clusters with color for ABA at 100 or 200 ppm after application and increased the harvest yield percent with sufficient color. ABA at 200 ppm with or without Latron 13-1956 had more color and greater yield than at 100 ppm.

Here are results for one substance from patent US20130123107A1, “Use of Adjuvants to Improve Abscisic Acid Performance” (Valent BioSciences Corporation, priority 2007, published 2013).

With “(S)-5-(1-hydroxy-2,6,6,-trimethyl-4-oxo-2-cyclohexen-1-yl)-3-methyl-(2Z,4E)-pentadienoic acid [ABA]”, the “% clusters with color” value reads like this: (100 ppm ABA foliar applied, 21 days after application) 1.8%; (100 ppm ABA foliar applied, 27 days after application) 2.7%; (100 ppm ABA foliar applied, 35 days after application) 5.7%; (100 ppm ABA foliar applied, 43 days after application) 7.5%; (100 ppm ABA foliar applied, 50 days after application) 9.4%; (100 ppm ABA foliar applied, 56 days after application) 26.1%. Moreover, the “% clusters with color” value by setting is: (100 ppm ABA foliar applied, 62 days after application) 26.2%; (100 ppm ABA foliar applied, 64 days after application) 31.2%; (200 ppm ABA foliar applied, 21 days after application) 7.0%; (200 ppm ABA foliar applied, 27 days after application) 10.7%; (200 ppm ABA foliar applied, 35 days after application) 17.3%; (200 ppm ABA foliar applied, 43 days after application) 20.5%. Besides, the “% clusters with color” value (200 ppm ABA foliar applied, 50 days after application) is 22.7%; the “% clusters with color” value (200 ppm ABA foliar applied, 56 days after application) amounted to 47.9%; the “% clusters with color” value (200 ppm ABA foliar applied, 62 days after application) was found to be 50.3%; the “% clusters with color” value (200 ppm ABA foliar applied, 64 days after application) was 56.4%. In addition, the “Harvest yield (%)” value turned out to be 25.5% (100 ppm ABA foliar applied) and 49.1% (200 ppm ABA foliar applied).
